Test results: PMC10232258 (Journal of Antimicrobial Chemotherapy, 2023)

Assays:
Population PK analysis = type: in vivo, human; details: for CLTFV: full model
[1] = average of five clinical studies (Table S4)
[2] = ref Yager et al. 50; cited from earlier work
[3] = cited from earlier work
HIV-1 = details: background statement; cited from earlier work
[4] = full final model, bootstrap median

SMILES: C[C@H](Cn1cnc2c(N)ncnc21)OCP(=O)(O)O [tenofovir]
- CLTFV (Population PK analysis; 80-year-olds): 36 L/h
- CLTFV lower than in normal kidney function (Population PK analysis; CLCR of 20 mL/min (stage 3 CKD) versus normal kidney function): 57%
- CLTFV, apparent clearance of tenofovir (Population PK analysis; base model, ka fixed to 2 h−1): 39.9 L/h
- θAge, age effect on CLTFV (Population PK analysis; [4]): −0.242
- θBlack or Hispano American, ethnicity effect on CLTFV (Population PK analysis; [4]): 0.120
- θCobicistat, effect of cobicistat on F (Population PK analysis; [4]): 1.16
- θPotent P-gp inhibitors, effect on CLTFV (Population PK analysis; [4]): −0.119
- CLTFV, apparent clearance of tenofovir (Population PK analysis; full final model, bootstrap median (n = 2000 samples)): 42.3 L/h
- θBlack or Hispano American, ethnicity effect on CLTFV (Population PK analysis; full final model, estimate): 0.119
- θPotent P-gp inhibitors, effect on CLTFV (Population PK analysis; full final model, estimate): −0.121
- θAge, age effect on CLTFV (Population PK analysis; full final model, estimate, Agemedian = 51 years): −0.244
- CLTFV, apparent clearance of tenofovir (Population PK analysis; full final model, estimate, CLCR-ref 100 mL/min, median age 51 years): 42.2 L/h
- VTFV, apparent volume of distribution of tenofovir (Population PK analysis; full final model, estimate, PLWH after oral TAF): 2390 L
- Tmax (Population PK analysis; human, plasma, oral): 2.4 h
- half-life (Population PK analysis; human, plasma, oral): 46 h
- Vd (Population PK analysis; human, plasma, oral, VTFV, apparent volume of distribution of tenofovir, full final model, bootstrap median (n = 2000 samples)): 2400 L
- CLTFV (Population PK analysis; individuals with CLCR of 20 mL/min (stage 3 CKD)): 18 L/h
- CLTFV (Population PK analysis; normal kidney function): 42 L/h
- CLTFV (Population PK analysis; younger PLWH, median age 51 years): 42 L/h

SMILES: CC(C)OC(=O)[C@H](C)N[P@](=O)(CO[C@H](C)Cn1cnc2c(N)ncnc21)Oc1ccccc1 [tenofovir alafenamide]
- Higher intracellular exposure in tenofovir diphosphate, TAF versus TDF [1]: six-fold
- Tenofovir diphosphate levels, TAF once every 3 days versus TDF every day [2]: 2.6 times
- Lower plasma levels of tenofovir under standard TAF versus TDF dosage [3]: 90%
- Potency relative to tenofovir disoproxil fumarate (HIV-1): 10 times
- Increase of relative bioavailability F (absorption of TAF) by cobicistat (Population PK analysis; TAF 10 mg with cobicistat versus 25 mg alone (F = 1)): 115%
